Measured values published in patent publication US7169750B2, “Methods to mobilize progenitor/stem cells” (Anormed, Inc., priority 2001, dated 2007).
Read-outs that look alike come from different tables or passages of the source.

Columns and labels:
WBC = settings: single dose of 80 μg/kg; Phase 1 study (Liles, et al.); cited from earlier work
CFU-GM = settings: 80 μg/kg s.c.
Procedure: (§1) Five healthy human volunteers having initial white blood cell counts of 4,500–7,500 cells/mm^3 were used in the study. […] Blood samples were obtained via catheter prior to the dose, and at various times up to 24 hours after dosing.
(§2) All progenitor cell results are based on the scoring of 3 culture plates per assay per point.
(§3) For the progenitor cell numbers and cycling status, the numbers of CFU-GM, BFU-E and CFU-GEMM in methylcellulose cultures by stimulation of the cells with 1 Unit (U)/ml recombinant human (rhu) erythropoietin, 100 U/ml rhu granulocyte-macrophage colony stimulating factor (GM-CSF), 100 U/ml rhu interleukin-3 (IL-3) and 50 ng/ml rhu steel factor (SLF=stem cell factor (SCF)). The CFU-GM were also evaluated in agar cultures stimulated with 100 U/ml rhu GM-CSF and 50 ng/ml rhu SLF. For both types of assays, colonies were scored after 14 day incubation in a humidified atmosphere with 5% CO2 and lowered (5%) O2 tension. Cell cycling status of progenitors was measured using a high specific activity tritiated thymidine kill technique as previously described (Broxmeyer, H. E., et al., Exp. Hematol. (1989) 17:455–459).

[1] = test system: granulocyte macrophage (CFU-GM), erythroid (BFU-E), and multipotential (CFU-GEMM) progenitor cells
Procedure: as §1, §2, §3

CXCR4 chemokine receptor = CXCR4 chemokine receptor (Homo sapiens, UniProt P61073); settings: Gerlach, et al., J.Biol. Chem. (2001); cited from earlier work
[2] = test system: progenitors in DNA synthesis (S) phase; settings: prior to and 1, 3, 6, 9 and 24 hours after injection
Procedure: For the progenitor cell numbers and cycling status, the numbers of CFU-GM, BFU-E and CFU-GEMM in methylcellulose cultures by stimulation of the cells with 1 Unit (U)/ml recombinant human (rhu) erythropoietin, 100 U/ml rhu granulocyte-macrophage colony stimulating factor (GM-CSF), 100 U/ml rhu interleukin-3 (IL-3) and 50 ng/ml rhu steel factor (SLF=stem cell factor (SCF)). […] For both types of assays, colonies were scored after 14 day incubation in a humidified atmosphere with 5% CO2 and lowered (5%) O2 tension. Cell cycling status of progenitors was measured using a high specific activity tritiated thymidine kill technique as previously described (Broxmeyer, H. E., et al., Exp. Hematol. (1989) 17:455–459).

[3] = test system: rats with ligated left coronary artery; settings: administered within hours after induction of cardiac ischemia, with or without rhG-CSF
Procedure: Adult rats are anesthetized and a thoracotomy is performed. The descending branch of the left coronary artery is ligated and not reperfused. […] Control rats are not treated with the reagents. The animals are monitored at one-week intervals by echocardiography and MRI. The experiment is terminated at 2, 6 to 12 weeks post-surgery. On the day of sacrifice, the hemodynamic functions are analyzed for left ventricle-end diastolic pressure, left ventricle-developed pressure and the rate of rise and fall of left ventricle pressure. The heart is then arrested in diastole and perfuised via the abdominal aorta to flush residual blood from the vascular network of the myocardium. This is followed by perfusion of the heart with 10% formalin. Several slices are made through the fixed heart and these are embedded in paraffin and sections. The sections are stained and analyzed by light microscopy to determine the size of the infarct in the treated and control animals. Tissue sections from hearts taken at 2 weeks after surgery are stained with antibodies specific for immature, developing myocyte and blood vessel proteins and analyzed by confocal microscopy. The immunohistochemical analysis involves the identification of transcription factors and surface markers expressed in early stages of myocyte development.

[4] = test system: circulating CD34+ progenitor/stem cells; settings: single dose of 80 μg/kg; 6 hour time point; Phase 1 study (Liles, et al.); cited from earlier work
nucleated cells = settings: T = 3 h; average of 5 donors; 80 μg/kg s.c.
progenitor cells = settings: AMD3100 5 mg/Kg s.c. + MIP-1α 5 μg I.V., 11 hours after rhu G-CSF or saline, 1 hour prior to assessing the blood
Procedure: Groups of mice were randomized to receive control diluent (saline) or G-CSF at a dose of 2.5 μg per mouse, twice a day, for two days via s.c. injection. […] One hour later, the mice were sacrificed and the number of progenitor cells per mL of blood were measured.

Chain of CXCR4 chemokine receptor (P61073 whole entry): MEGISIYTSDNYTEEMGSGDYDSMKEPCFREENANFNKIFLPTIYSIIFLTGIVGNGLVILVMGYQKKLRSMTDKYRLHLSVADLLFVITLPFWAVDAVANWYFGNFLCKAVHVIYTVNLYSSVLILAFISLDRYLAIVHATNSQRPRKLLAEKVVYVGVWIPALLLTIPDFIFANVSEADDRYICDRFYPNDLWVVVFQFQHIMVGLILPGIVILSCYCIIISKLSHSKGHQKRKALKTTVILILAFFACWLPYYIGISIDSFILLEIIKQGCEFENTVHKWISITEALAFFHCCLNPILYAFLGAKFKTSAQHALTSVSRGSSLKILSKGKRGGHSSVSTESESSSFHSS

## c1cc(CN2CCCNCCNCCCNCC2)ccc1CN1CCCNCCNCCCNCC1 [AMD3100, 1,1′-[1,4-phenylene-bis(methylene)]-bis-1,4,8,11-tetraazacyclotetradecane]
WBC
  WBC count: 17,000 / μl
CFU-GM; P4, T = 24 h
  CFU-GM agar culture fold change from T=0: 1.30 fold
CFU-GM; P5, T = 3 h
  CFU-GM agar culture fold change from T=0: 6.40 fold
CFU-GM; P5, T = 24 h
  CFU-GM agar culture fold change from T=0: 2.20 fold
[1]; P1, T = 1 h, 80 μg/kg s.c.
  CFU-GEMM methylcellulose culture fold change from T=0: 2.07 fold
[1]; P1, T = 24 h, 80 μg/kg s.c.
  CFU-GEMM methylcellulose culture fold change from T=0: 1.12 fold
  CFU-GM methylcellulose culture fold change from T=0: 1.10 fold
[1]; P2, T = 1 h, 80 μg/kg s.c.
  BFU-E methylcellulose culture fold change from T=0: 1.48 fold
[1]; P3, T = 1 h, 80 μg/kg s.c.
  BFU-E methylcellulose culture fold change from T=0: 2.30 fold
  CFU-GM methylcellulose culture fold change from T=0: 3.70 fold
[1]; P3, T = 9 h, 80 μg/kg s.c.
  CFU-GEMM methylcellulose culture fold change from T=0: 2.47 fold
[1]; P3, T = 24 h, 80 μg/kg s.c.
  CFU-GEMM methylcellulose culture fold change from T=0: 0.69 fold
[1]; P4, T = 3 h, 80 μg/kg s.c.
  BFU-E methylcellulose culture fold change from T=0: 2.60 fold
[1]; P4, T = 6 h, 80 μg/kg s.c.
  CFU-GEMM methylcellulose culture fold change from T=0: 9.10 fold
[1]; P4, T = 24 h, 80 μg/kg s.c.
  BFU-E methylcellulose culture fold change from T=0: 0.79 fold
  CFU-GEMM methylcellulose culture fold change from T=0: 0.98 fold
[1]; P5, T = 3 h, 80 μg/kg s.c.
  CFU-GEMM methylcellulose culture fold change from T=0: 4.43 fold
  CFU-GM methylcellulose culture fold change from T=0: 8.40 fold
[1]; T = 1 h, mean of five donors, 80 μg/kg s.c.
  BFU-E methylcellulose culture % CHG: 98.9%
[1]; after injection, all five donors
  time of maximal fold increases in circulating levels of progenitor cells: 6 h
CXCR4 chemokine receptor
  action at the CXCR4 chemokine receptor: antagonist
[2]
  cycling state of progenitors: slow or non-cycling state
[3]
  cardiac remodeling and scar formation: block to cardiac remodeling and scar formation
  mobilization of bone marrow stem cells: mobilizes bone marrow stem cells rapidly
  regeneration of myocardium: regeneration of the dead myocardium
[4]
  peak increase in circulating CD34+ progenitor/stem cells: 6 fold
Nucleated cells
  PBL-LD nucleated cellularity Fold Change Compared to TIME = 0, MEAN: 2.86 fold
  PBL-US nucleated cellularity Fold Change Compared to TIME = 0, MEAN: 2.80 fold
Progenitor cells
  mobilization of progenitor cells in combination with mu MIP-1α: additive to greater than additive
